Laboratory results as given in US20120134977A1 (YEDA RESEARCH AND DEVELOPMENT CO. LTD., priority 2009, published 2012).

Experiments:
[1] = molecular target: human serum albumin (HSA) (Homo sapiens, UniProt P02768); experiment: Isothermal scanning calorimetry (ITC) of ligand association with HSA; type: binding; settings: for Kd: ligand 400 μM injected into HSA 10 μM, PBS pH 7.4, 23° C., read-out: Association-constant to HSA K (Ka) (converted)
Procedure: The data was obtained for 15 automatic injections each of 2.7 The total duration of the experiments was 45 min (2A). […] Sample cell contained HSA at a concentration of 10 μM. Both components were dissolved in PBS-buffer pH=7.4. The experiment was conducted at 23° C.
(iv) Isothermal scanning calorimetry measurements were performed with iTC200 microcalorimeter (MicroCal LLC, Nothampton Mass., USA), according to the manufacturer's instructions.

HSA = HSA (Homo sapiens, UniProt P02768); settings: immobilized HSA binding strategy, Markusen et al., 1996; cited from earlier work
Chain of HSA (P02768 25-609): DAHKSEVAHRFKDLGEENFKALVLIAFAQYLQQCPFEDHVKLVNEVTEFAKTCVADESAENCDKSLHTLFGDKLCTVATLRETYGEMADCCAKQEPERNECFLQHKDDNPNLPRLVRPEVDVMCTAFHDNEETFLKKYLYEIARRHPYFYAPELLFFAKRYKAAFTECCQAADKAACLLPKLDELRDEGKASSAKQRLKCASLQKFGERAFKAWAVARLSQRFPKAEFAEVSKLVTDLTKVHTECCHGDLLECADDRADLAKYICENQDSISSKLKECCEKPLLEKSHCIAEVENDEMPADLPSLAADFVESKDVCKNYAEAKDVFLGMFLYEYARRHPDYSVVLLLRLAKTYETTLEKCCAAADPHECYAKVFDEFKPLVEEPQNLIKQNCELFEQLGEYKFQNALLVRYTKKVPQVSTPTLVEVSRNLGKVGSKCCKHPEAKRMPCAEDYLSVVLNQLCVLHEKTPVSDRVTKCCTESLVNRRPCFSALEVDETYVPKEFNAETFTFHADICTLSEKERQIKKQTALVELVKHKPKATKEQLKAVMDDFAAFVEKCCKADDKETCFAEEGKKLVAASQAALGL

[2] = background statement; cited from earlier work
E. Coli = settings: previously disclosed (Shechter et al., 2002; Marcus et al., 2008); read-out: IC50, inhibition of E. Coli replication; cited from earlier work
CD1-mice = settings: at any dosage, previously described; cited from earlier work

Chain of human serum albumin (HSA) (P02768 25-609): as above

## O=C(O)CCCCCCCCCCCCCCCSC1CC(=O)NC1=O (stereo not shown) [MAL-S—(CH2)15—COOH, 16-(2,5-dioxopyrrolidin-3-ylthio)hexadecanoic acid]
[1]
  Kd: 6.45 µM

## N^εB29-tetradecanoyl des(B30) insulin [insulin-detemir]
[1]; PBS pH 7.4
  N (binding sites, OneSites model): 0.693±0.0430 sites
  ΔH of binding to HSA: -4.575 ± 0.4067 kcal/mol
  ΔS of binding to HSA: 6.79 (cal/mol)/deg
HSA
  Ka, binding affinity to HSA: 2.4±0.7×10^5 M^−1
[2]
  duration of action: up to 24 hours

## Gentamicin
E. Coli
  IC50: 2.1 ± 0.2 µM

## O=C(O)CCCCCCCCCCSC1CC(=O)NC1=O (stereo not shown)
[1]
  Kd: 7.69 µM

## O=C(O)CNC(=O)OCC1c2cc(NC(=O)CCN3C(=O)C=CC3=O)ccc2-c2ccc(S(=O)(=O)O)cc21 (stereo not shown) [Glycine-FMS-MAL, 2-(((2-(3-(2,5-dioxo-2,5-dihydro-1H-pyrrol-1-yl)propanamido)-7-sulfo-9H-fluoren-9-yl)methoxy)carbonylamino)acetic acid]
[1]
  Kd: 7.14 µM

## exendin-4
CD1-mice
  threshold decrease of circulating blood glucose level: 27±3%
